SMILES strings stand for the structures.

For the assay, the target named is T1, human NPY Y5 receptor (Homo sapiens, UniProt Q15761).
T1 construct: expressed in transfected cells; membranes used
T1 sequence (Q15761 1-445): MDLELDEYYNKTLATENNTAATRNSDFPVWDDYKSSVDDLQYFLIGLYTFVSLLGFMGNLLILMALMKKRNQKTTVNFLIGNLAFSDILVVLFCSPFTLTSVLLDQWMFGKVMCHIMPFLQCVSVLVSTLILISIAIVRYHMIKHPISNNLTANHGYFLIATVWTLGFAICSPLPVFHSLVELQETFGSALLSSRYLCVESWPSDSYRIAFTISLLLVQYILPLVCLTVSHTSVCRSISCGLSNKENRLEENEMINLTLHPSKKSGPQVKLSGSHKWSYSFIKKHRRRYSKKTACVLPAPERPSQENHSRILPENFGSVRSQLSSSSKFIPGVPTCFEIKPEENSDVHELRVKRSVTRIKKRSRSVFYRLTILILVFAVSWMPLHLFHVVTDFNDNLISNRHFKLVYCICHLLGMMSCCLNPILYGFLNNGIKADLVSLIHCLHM
The experiment in a line: Affinity for NPY Y5 receptor ([125I] peptide YY binding to CHO cell membranes). Conditions: membranes from CHO cells expressing NPY Y5 receptor; [125I] peptide YY 60 pM; 25° C., 2 hours; read-out: 50% inhibitory concentration of the test-compound against the specific peptide YY binding (IC50 value). An excerpt: Experiment 1: Affinity for NPY Y5 Receptor
cDNA sequence encoding a human NPY Y5 receptor (WO96/16542) was cloned in a vector pME18S (Takebe et al. Mol. Cell. Biol. 8, 8957). The obtained expression vector was transfected into CHO cells as a host by using Lipofect AMINE reagent (Trademark, Gibco BRL Co., Ltd.) according to the instruction manual. The cells that stably express NPY Y5 receptor were obtained.
The membranes prepared from the CHO cells expressing NPY Y5 receptor, the compound of the present invention and 30,000 cpm [^125I] peptide YY (60 pM of final concentration: Amersham) were incubated in the assay buffer (20 mM HEPES-Hanks buffer containing 0.1% bovine serum albumin, pH 7.4) at 25° C. for 2 hours, and then the membrane was filtered from the mixture through a glassfilter (GF/C) presoaked with 1% polyethyleneimine. After washing with 50 mM Tris-HCl buffer (pH 7.4), radioactivity retained on the filters was quantified with a gamma counter. Nonspecific binding was defined as the amount of radioactivity bound to the membranes after incubation in the presence of 200 nM of peptide YY. The 50% inhibitory concentration of the test-compound against the specific peptide YY binding (IC50 value) was calculated (Inui, A. et al. Endocrinology 131, 2090-2096 (1992)).

In the case of `CC(C)(C)S(=O)(=O)N[C@H]1CC[C@H](C(=O)NNc2ccc(Cl)c(Cl)c2)CC1` [Example I-4], the IC50 stood at 2.3 nM.

Turning to `CC(C)S(=O)(=O)N[C@H]1CC[C@H](C(=O)NNc2ccc(Cl)c(Cl)c2)CC1` [Example I-8], the IC50 was 1.1 nM.

Turning to `CC(C)(C)S(=O)(=O)N[C@H]1CC[C@H](C(=O)NNc2cccc3ccccc23)CC1` [Example I-17], the IC50 is 0.88 nM.

For `CC(C)(C)S(=O)(=O)N[C@H]1CC[C@H](C(=O)NNc2cccc(-c3ccccc3)c2)CC1` [Example I-23], the IC50 amounted to 1.12 nM.

The values are drawn from US8344180B2, “Hydrazine amide derivative” (Shionogi & Co., Ltd., priority 2006, dated 2013).
